The source of these data is patent US8785436B2, “1,3-oxazines as BACE 1 and/or BACE2 inhibitors” (Hoffmann-La Roche Inc., priority 2011, dated 2014).

Structures can show the parent of a compound that is named as a salt.

As usually defined, the IC50 is the concentration needed to halve the response being measured.

For one assay, the target named is T1, BACE1 (Homo sapiens, UniProt P56817).
T1 construct: Human HEK293 cells which are stably transfected with a vector expressing a cDNA of the human APP wt gene (APP695); endogenous in cells; host or cells: HEK293 cells stably expressing human APP695 wt
T1 sequence (P56817 46-501): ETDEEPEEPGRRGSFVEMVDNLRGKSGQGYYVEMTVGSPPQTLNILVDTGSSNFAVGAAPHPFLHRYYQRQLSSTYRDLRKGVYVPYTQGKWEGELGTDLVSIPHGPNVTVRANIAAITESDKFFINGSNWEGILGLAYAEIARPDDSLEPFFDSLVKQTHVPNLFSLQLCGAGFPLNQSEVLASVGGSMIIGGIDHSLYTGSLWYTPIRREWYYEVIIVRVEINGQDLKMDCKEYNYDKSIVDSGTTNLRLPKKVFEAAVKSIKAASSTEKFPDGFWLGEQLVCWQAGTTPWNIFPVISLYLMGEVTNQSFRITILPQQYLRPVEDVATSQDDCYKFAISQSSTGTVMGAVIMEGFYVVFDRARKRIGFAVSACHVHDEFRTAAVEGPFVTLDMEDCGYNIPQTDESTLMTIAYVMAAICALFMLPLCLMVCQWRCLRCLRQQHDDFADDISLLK
As to the kind of experiment: Cellular Aβ-lowering assay b) (Abeta 40 AlphaLISA, HEK293 APP cells). In kind it is cell-based. To be noted: 18-20 hrs incubation, read-out: BACE1 cell act. Aβ40 IC50. The procedure:
Cellular Aβ-Lowering Assay:
b) Alternatively, the Abeta 40 AlphaLISA Assay can be used. The HEK293 APP cells were seeded in 96 well Microtiter plates in cell culture medium (Iscove's, plus 10% (v/v) fetal bovine serum, penicillin/streptomycin) to about 80% confluency and the compounds were added at a 3× concentration in 1/3 volume of culture medium (final DMSO concentration was kept at 1% v/v). After 18-20 hrs incubation at 37° C. and 5% CO2 in a humidified incubator, the culture supernatants were harvested for the determination of Aβ 40 concentrations using Perkin-Elmer Human Amyloid beta 1-40 (high specificity) Kit (Cat# AL275C).
In a Perkin-Elmer White Optiplate-384 (Cat#6007290), 2 ul culture supernatants were combined with 2 μl of a 10× AlphaLISA Anti-hAβ Acceptor beads+Biotinylated Antibody Anti-Aβ 1-40 Mix (50 μg/mL/5 nM). After 1 hour room temperature incubation, 16 μl of a 1.25× preparation of Streptavidin (SA) Donor beads (25 μg/mL) were added and incubated for 30 minutes in the Dark. Light Emission at 615 nm was then recorded using EnVision-Alpha Reader. Levels of Aβ 40 in the culture supernatants were calculated as percentage of maximum signal (cells treated with 1% DMSO without inhibitor). The IC50 values were calculated using the Excel XLfit software.
With `C[C@]1(c2cc(-c3nc4ccc(Cl)cc4o3)c(F)cc2F)N=C(N)OCC1(F)F` [Example 15, (R)-4-[5-(6-Chloro-benzooxazol-2-yl)-2,4-difluoro-phenyl]-5,5-difluoro-4-methyl-5,6-dihydro-4H-[1,3]oxazin-2-ylamine Hydrochloride], the IC50 was 1280 nM.
As to `CCc1ccc(Cc2nc3ccc([C@@]4(C)N=C(N)OCC4(F)F)cc3[nH]2)cc1` [Example 55, (R)-4-[2-(4-Ethyl-benzyl)-3H-benzoimidazol-5-yl]-5,5-difluoro-4-methyl-5,6-dihydro-4H-[1,3]oxazin-2-ylamine], the concentration for half-maximal inhibition (IC50) is 1450 nM.
`C[C@]1([C@@H]2C[C@H]2C(=O)Nc2csc3cc(C#N)cnc23)N=C(N)OCC1(F)F` [Example 65, (1R,2R)-2-((R)-2-Amino-5,5-difluoro-4-methyl-5,6-dihydro-4H-[1,3]oxazin-4-yl)-cyclopropanecarboxylic acid(6-cyano-thieno[3,2-b]pyridin-3-yl)-amide]: the IC50 came out at 180 nM.
Regarding `C[C@]1(C2CC2C(=O)Nc2cccc3cc(Cl)cnc23)N=C(N)OCC1(F)F` (stereo in doubt) [Example 62, (1S,2S)-rel-2-((R)-2-Amino-5,5-difluoro-4-methyl-5,6-dihydro-4H-[1,3]oxazin-4-yl)-cyclopropanecarboxylic acid(3-chloro-quinolin-8-yl)-amide], the IC50 stood at 420 nM.
`NC1=N[C@@](c2cc(-c3cncc(Cl)c3)ccc2F)(C(F)F)CCO1` [Example 54B, (S)-4-[5-(5-Chloro-pyridin-3-yl)-2-fluoro-phenyl]-4-difluoromethyl-5,6-dihydro-4H-[1,3]oxazin-2-ylamine]: the concentration for half-maximal inhibition (IC50) was 220 nM.
Regarding `C[C@]1(c2cnn(-c3cccc(C#N)c3)c2)N=C(N)OCC1(F)F` [Example 60, 3-[4-((R)-2-Amino-5,5-difluoro-4-methyl-5,6-dihydro-4H-[1,3]oxazin-4-yl)-pyrazol-1-yl]-benzonitrile], the concentration for half-maximal inhibition (IC50) was 4620 nM.
Take `C[C@]1(c2cccc(OCC3CC3(F)F)c2)N=C(N)OCC1(F)F` (mixture of isomers) [Example 57, (R)-4-[5-((RS)-2,2-Difluoro-cyclopropylmethoxy)-phenyl]-5,5-difluoro-4-methyl-5,6-dihydro-4H-[1,3]oxazin-2-ylamine]: the concentration for half-maximal inhibition (IC50) worked out at 3700 nM.
As for `C[C@]1(c2cc(NCc3cc(F)cc(F)c3)ccc2F)N=C(N)OC[C@@H]1F` [Example 56, (4R,5R)-4-[5-(3,5-Difluoro-benzylamino)-2-fluoro-phenyl]-5-fluoro-4-methyl-5,6-dihydro-4H-[1,3]oxazin-2-ylamine], the IC50 was found to be 800 nM.
Still for that read-out and setting: as for `C[C@]1(c2cnn(-c3cccc(Br)c3)c2)N=C(N)OCC1(F)F` [Intermediate K7.1, (R)-4-[1-(3-bromo-phenyl)-1H-pyrazol-4-yl]-5,5-difluoro-4-methyl-5,6-dihydro-4H-[1,3]oxazin-2-ylamine], the figure is 1440 nM; as for `C#Cc1cccc(-n2cc([C@@]3(C)N=C(N)OCC3(F)F)cn2)c1` [Example 61, (R)-4-[1-(3-Ethynyl-phenyl)-1H-pyrazol-4-yl]-5,5-difluoro-4-methyl-5,6-dihydro-4H-[1,3]oxazin-2-ylamine], 720 nM.
`C[C@]1([C@@H]2C[C@H]2C(=O)Nc2cccc3cc(Cl)cnc23)N=C(N)OCC1(F)F` [Example 63, (1R,2R)-((R)-2-Amino-5,5-difluoro-4-methyl-5,6-dihydro-4H-[1,3]oxazin-4-yl)-cyclopropanecarboxylic acid(3-chloro-quinolin-8-yl)-amide]: the 50% inhibitory concentration (IC50) stood at 360 nM.
On the same count and under the same terms, as for `C[C@]1(c2cc(-c3cncc(Cl)c3)c(F)cc2F)N=C(N)OCC1(F)F` [Example 32, (R)-4-[5-(5-Chloro-pyridin-3-yl)-2,4-difluoro-phenyl]-5,5-difluoro-4-methyl-5,6-dihydro-4H-[1,3]oxazin-2-ylamine], the figure is 880 nM.
On the same count and under the same terms, the value for `C[C@]1(c2cccc(OCCC(F)(F)F)c2)N=C(N)OCC1(F)F` [Example 58, (R)-5,5-Difluoro-4-methyl-4-[3-(3,3,3-trifluoro-propoxy)-phenyl]-5,6-dihydro-4H-[1,3]oxazin-2-ylamine] was 2010 nM; that for `C[C@]1(c2cccc(OCC3CC3)c2)N=C(N)OCC1(F)F` [Example 59, (R)-4-(3-Cyclopropylmethoxy-phenyl)-5,5-difluoro-4-methyl-5,6-dihydro-4H-[1,3]oxazin-2-ylamine] was 3120 nM; that for `C[C@]1(c2cc(-c3cncnc3)c(F)cc2F)N=C(N)OCC1(F)F` [Example 33, (R)-4-(2,4-Difluoro-5-pyrimidin-5-yl-phenyl)-5,5-difluoro-4-methyl-5,6-dihydro-4H-[1,3]oxazin-2-ylamine] was 380 nM.
Consider `CC1(C)OC(N)=N[C@](C)(c2cc(Nc3cccc(C(F)(F)F)n3)ccc2F)C1(F)F` [Example 47, (R)-5,5-Difluoro-4-[2-fluoro-5-(6-trifluoromethyl-pyridin-2-ylamino)-phenyl]-4,6,6-trimethyl-5,6-dihydro-4H-[1,3]oxazin-2-ylamine], for which the IC50 amounted to 4170 nM.
On the same count and under the same terms, the value for `CC1(C)OC(N)=N[C@](C)(c2cc(NC3CCC(c4ccccc4)C3)ccc2F)C1(F)F` (mixture of isomers) [Example 49, (R)-5,5-Difluoro-4-[2-fluoro-5-((1RS,3RS)-3-phenyl-cyclopentylamino)-phenyl]-4,6,6-trimethyl-5,6-dihydro-4H-[1,3]oxazin-2-ylamine] was 1210 nM; that for `CC1(C)OC(N)=N[C@](C)(c2cc(-c3cc(C#N)ccc3Cl)ccc2F)C1(F)F` [Example 52, 3′-((R)-2-Amino-5,5-difluoro-4,6,6-trimethyl-5,6-dihydro-4H-[1,3]oxazin-4-yl)-6-chloro-4′-fluoro-biphenyl-3-carbonitrile] was 2880 nM; that for `NC1=NC(c2cc(-c3cncc(Cl)c3)ccc2F)(C(F)F)CCO1` (stereo not drawn) [Example 53, 4-[5-(5-Chloro-pyridin-3-yl)-2-fluoro-phenyl]-4-difluoromethyl-5,6-dihydro-4H-[1,3]oxazin-2-ylamine] was 502 nM.

Another assay has as its target T2, BACE2 (Rattus norvegicus, UniProt Q6IE75).
T2 construct: endogenous cellular BACE2 in the Ins1e rat cell line; endogenous in cells; host or cells: INS-TMEM27 (INS1e-derived rat cell line with TetOn-inducible full-length hTMEM27)
T2 sequence (Q6IE75 63-514): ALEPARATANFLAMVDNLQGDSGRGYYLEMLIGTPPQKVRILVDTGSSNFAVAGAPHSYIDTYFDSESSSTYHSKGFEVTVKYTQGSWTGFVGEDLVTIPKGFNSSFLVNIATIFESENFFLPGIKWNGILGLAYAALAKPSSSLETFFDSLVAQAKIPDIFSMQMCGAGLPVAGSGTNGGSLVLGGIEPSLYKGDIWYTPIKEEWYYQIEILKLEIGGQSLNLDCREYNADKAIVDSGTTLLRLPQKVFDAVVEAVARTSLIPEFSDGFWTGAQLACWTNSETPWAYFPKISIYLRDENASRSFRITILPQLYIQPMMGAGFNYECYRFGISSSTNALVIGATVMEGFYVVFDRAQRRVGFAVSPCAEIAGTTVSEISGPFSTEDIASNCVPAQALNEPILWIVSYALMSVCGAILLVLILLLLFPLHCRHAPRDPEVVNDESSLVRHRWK
Put plainly: BACE inhibition by measuring cellular TMEM27 cleavage (INS-TMEM27 cells, ELISA). In kind it is cell-based. To be noted: INS-TMEM27 (Ins1e rat) cells, shed human TMEM27 by ELISA; read-out: BACE2 cell act. IC50. The source says:
Assay for BACE Inhibition by Measuring Cellular TMEM27 Cleavage:
The assay uses the principle of inhibition of human TMEM27 cleavage by endogenous cellular BACE2 in the Ins1e rat cell line and shedding from the cell surface into the culture medium, followed by detection in an ELISA assay Inhibition of BACE2 prevents the cleavage and shedding in a dose-dependent manner.
The stable cell line “INS-TMEM27” represents an INS1e-derived cell line with inducible expression (using the TetOn system) of full-length hTMEM27 in a doxycycline-dependent manner. The cells are cultured throughout the experiment in RPMI1640+Glutamax (Invitrogen) Penicillin/Streptomycin, 10% Fetal bovine serum, […], […], 100 micrograms/ml G418 and 100 microgram/ml hygromycin and are grown inadherent culture at 37° C. in a standard CO2 cell culture incubator.
INS-TMEM27 cells are seeded in 96-well plates. After 2 days in culture, BACE2 inhibitor is added in a range of concentrations as required by the assay and after a further two hours, doxycycline is added to a final concentration of 500 ng/ml. The cells are incubated for a further 46 hours and the supernatant harvested for detection of shed TMEM27.
An ELISA assay (using a pair of mouse anti-human-TMEM27 antibodies, raised against the extracellular domain of TMEM27) is used for detection of TMEM27 in the culture medium. An EC50 for BACE2 inhibition is calculated using the ELISA readout for each inhibitor concentration with standard curve-fitting software such as XLFit for the Excel spreadsheet program.
(ELISA stands for enzyme-linked immunosorbent assay.)
Consider `C[C@]1([C@@H]2C[C@H]2C(=O)Nc2cccc3cc(Cl)cnc23)N=C(N)OCC1(F)F` [Example 63, (1R,2R)-((R)-2-Amino-5,5-difluoro-4-methyl-5,6-dihydro-4H-[1,3]oxazin-4-yl)-cyclopropanecarboxylic acid(3-chloro-quinolin-8-yl)-amide], for which the IC50 was 1350 nM.
As to `CC1(C)OC(N)=N[C@](C)(c2cc(Nc3cccc(C(F)(F)F)n3)ccc2F)C1(F)F` [Example 47, (R)-5,5-Difluoro-4-[2-fluoro-5-(6-trifluoromethyl-pyridin-2-ylamino)-phenyl]-4,6,6-trimethyl-5,6-dihydro-4H-[1,3]oxazin-2-ylamine], the 50% inhibitory concentration (IC50) is 2750 nM.
